This note sets out measurements from US20100216779A1 (GLAXOSMITHKLINE LLC, priority 2007, published 2010).

As a reminder, the pIC50 is the negative decadic logarithm of the IC50, by convention in mol/L. A lower pIC50 goes with a large IC50.

pIC50: −log10 of the molar value. A value given as a limit tells only on which side of the number the result lay.

Format in all cases: cell-based
Test [1] deals with T1, IR (NIH-3T3 cells over expressing human IGF-1R or IR) (Homo sapiens, UniProt P06213).
T1 construct: expressed in transfected cells; host or cells: NIH-3T3 (mouse fibroblasts)
As to the kind of experiment: IR cellular autophosphorylation (DELFIA). As to conditions: NIH-3T3 cells over expressing IR, insulin stimulated. In short, it runs like this:
(§1)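 Readout: DELFIA on lysates, with anti-IGF-1R or anti-IR capture and europium anti-pTyr detection, expressed relative to 100% ligand-stimulated signal. Human IGF-1R- or IR-overexpressing NIH-3T3 cells got compound (1.5 nM–30 uM) for 2 h before 15 min IGF-1 (30 ng/mL) or insulin (3 ug/mL).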

Test [2] concerns COLO205 (colon). Briefly: Inhibition of cell proliferation, CellTiter-Glo, COLO205. As to conditions: Homo sapiens, COLO 205, 72 h. In short, it runs like this:
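Exponentially growing COLO205 cells in medium with 10% FBS were plated below 2000 cells/well at 37 °C, 5% CO2. Untreated wells served as controls.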
A general note: ATP-based viability assays read luminescence as a measure of living cells.

Test [3] has as its target T2, human IGF-1R (NIH-3T3 cells over expressing human IGF-1R) (Homo sapiens, UniProt P08069).
T2 construct: expressed in transfected cells; host or cells: NIH-3T3 (mouse fibroblasts)
Briefly: IGF-1R cellular autophosphorylation (DELFIA). As to conditions: IGF-1 stimulated. In short, it runs like this: as §1

The test system of test [4] is NCI-H929 (multiple myeloma). Briefly: Inhibition of cell proliferation, CellTiter-Glo, NCI-H929. The note with it: Homo sapiens, 72 h. The essentials:
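Cells were grown in medium with 10% FBS at 37° C, 5% CO2. Cell number was read as CellTiter-Glo luminescence (cellular ATP), with untreated wells as control.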

T2 sequence (P08069 31-1367): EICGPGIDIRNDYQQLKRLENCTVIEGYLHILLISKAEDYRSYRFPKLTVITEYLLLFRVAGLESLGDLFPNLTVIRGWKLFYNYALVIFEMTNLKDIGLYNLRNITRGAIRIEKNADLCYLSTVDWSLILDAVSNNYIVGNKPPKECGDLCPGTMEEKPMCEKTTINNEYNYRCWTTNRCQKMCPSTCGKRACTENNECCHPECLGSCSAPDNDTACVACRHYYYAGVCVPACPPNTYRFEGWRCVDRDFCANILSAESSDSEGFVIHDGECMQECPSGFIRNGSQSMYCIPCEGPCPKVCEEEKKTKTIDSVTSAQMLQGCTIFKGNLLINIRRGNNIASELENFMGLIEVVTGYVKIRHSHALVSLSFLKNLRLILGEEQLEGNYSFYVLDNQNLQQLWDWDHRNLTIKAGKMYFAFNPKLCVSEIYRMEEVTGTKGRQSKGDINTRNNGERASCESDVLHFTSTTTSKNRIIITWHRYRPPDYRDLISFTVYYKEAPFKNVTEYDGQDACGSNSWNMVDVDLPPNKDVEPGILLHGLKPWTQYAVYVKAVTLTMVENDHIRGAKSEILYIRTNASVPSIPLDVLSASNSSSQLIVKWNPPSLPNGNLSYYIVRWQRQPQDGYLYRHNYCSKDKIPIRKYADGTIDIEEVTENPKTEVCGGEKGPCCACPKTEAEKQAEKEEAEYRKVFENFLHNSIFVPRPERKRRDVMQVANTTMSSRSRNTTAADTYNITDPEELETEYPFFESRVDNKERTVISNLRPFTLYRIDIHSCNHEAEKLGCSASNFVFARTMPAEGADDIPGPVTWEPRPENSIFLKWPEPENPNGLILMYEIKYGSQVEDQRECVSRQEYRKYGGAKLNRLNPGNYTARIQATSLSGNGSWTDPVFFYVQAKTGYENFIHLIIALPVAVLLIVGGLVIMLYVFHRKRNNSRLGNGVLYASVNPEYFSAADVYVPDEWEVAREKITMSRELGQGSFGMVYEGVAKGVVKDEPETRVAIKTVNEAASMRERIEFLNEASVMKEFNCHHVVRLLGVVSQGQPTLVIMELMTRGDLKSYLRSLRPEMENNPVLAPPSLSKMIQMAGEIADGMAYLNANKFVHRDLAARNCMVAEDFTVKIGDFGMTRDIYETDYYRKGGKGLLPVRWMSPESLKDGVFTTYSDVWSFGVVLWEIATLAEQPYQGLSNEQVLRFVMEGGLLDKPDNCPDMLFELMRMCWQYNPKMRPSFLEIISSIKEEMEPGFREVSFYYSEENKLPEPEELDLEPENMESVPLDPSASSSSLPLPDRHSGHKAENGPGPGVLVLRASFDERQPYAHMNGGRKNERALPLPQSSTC
T1 sequence (P06213 28-1382): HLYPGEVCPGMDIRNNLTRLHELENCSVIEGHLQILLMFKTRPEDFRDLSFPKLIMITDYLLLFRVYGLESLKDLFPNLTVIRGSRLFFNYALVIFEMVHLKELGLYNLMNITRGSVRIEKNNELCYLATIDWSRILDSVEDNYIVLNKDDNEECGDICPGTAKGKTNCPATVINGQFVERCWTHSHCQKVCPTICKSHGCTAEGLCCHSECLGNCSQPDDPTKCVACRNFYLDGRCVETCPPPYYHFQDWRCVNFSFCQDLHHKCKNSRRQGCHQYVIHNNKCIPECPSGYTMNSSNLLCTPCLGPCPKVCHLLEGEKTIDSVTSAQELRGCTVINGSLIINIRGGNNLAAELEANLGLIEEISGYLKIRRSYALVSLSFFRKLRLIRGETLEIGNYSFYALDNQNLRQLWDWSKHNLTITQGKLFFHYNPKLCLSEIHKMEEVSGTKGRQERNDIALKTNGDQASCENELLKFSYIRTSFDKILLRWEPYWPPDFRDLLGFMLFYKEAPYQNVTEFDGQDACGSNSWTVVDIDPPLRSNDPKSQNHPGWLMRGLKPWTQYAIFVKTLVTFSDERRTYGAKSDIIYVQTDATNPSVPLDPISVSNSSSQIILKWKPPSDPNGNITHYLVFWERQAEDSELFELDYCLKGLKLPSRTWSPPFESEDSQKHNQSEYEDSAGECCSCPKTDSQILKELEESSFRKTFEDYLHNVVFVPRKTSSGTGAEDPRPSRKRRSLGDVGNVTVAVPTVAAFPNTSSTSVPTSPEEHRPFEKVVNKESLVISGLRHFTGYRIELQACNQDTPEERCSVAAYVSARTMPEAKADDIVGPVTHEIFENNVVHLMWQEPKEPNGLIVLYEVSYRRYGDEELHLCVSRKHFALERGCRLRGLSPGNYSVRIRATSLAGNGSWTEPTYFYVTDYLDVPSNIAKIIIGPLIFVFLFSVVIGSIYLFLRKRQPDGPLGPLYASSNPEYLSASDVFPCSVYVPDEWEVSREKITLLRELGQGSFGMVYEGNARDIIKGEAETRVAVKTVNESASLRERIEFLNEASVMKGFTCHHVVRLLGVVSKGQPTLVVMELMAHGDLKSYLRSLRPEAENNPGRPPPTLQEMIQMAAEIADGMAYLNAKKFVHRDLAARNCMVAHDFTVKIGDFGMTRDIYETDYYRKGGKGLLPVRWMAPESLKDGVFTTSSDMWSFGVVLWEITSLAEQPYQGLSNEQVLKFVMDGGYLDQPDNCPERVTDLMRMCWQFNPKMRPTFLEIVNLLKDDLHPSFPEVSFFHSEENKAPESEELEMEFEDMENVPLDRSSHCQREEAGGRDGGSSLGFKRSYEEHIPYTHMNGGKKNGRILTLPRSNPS

`COc1cc(N2CCC(N3CCN(CCF)CC3)CC2)ccc1Nc1nccc(-c2c(-c3cccc(C(=O)Nc4c(F)cccc4F)c3)nc3c(C)cccn23)n1` [Example 60, N-(2,6-difluorophenyl)-3-[3-(2-{[4-{4-[4-(2-fluoroethyl)-1-piperazinyl]-1-piperidinyl}-2-(methyloxy)phenyl]amino}-4-pyrimidinyl)-8-methylimidazo[1,2-a]pyridin-2-yl]benzamide]: the pIC50 is over 7.00 in test [1], 6.00 to 6.60 in test [2], over 7.00 in test [3] and 6.00 to 6.60 in test [4].
On to `CCCN1CCC(c2ccc(Nc3nccc(-c4c(-c5ccc(OCC)c(C(=O)Nc6c(F)cccc6F)c5)nc5ccccn45)n3)c(OCC)c2)CC1` [Example 156, N-(2,6-difluorophenyl)-2-(ethyloxy)-5-[3-(2-{[2-(ethyloxy)-4-(1-propyl-4-piperidinyl)phenyl]amino}-4-pyrimidinyl)imidazo[1,2-a]pyridin-2-yl]benzamide], for which the pIC50 in test [1] was over 7.00; in test [2], 6.00 to 6.60; in test [3] it was over 7.00; in test [4] it was over 6.60.
Consider `CCCN1CCN(c2ccc(Nc3nccc(-c4c(-c5ccc(OCC)c(C(=O)Nc6c(F)cccc6F)c5)nc5ccccn45)n3)c(OC)c2)CC1` [Example 178, N-(2,6-difluorophenyl)-2-(ethyloxy)-5-[3-(2-{[2-(methyloxy)-4-(4-propyl-1-piperazinyl)phenyl]amino}-4-pyrimidinyl)imidazo[1,2-a]pyridin-2-yl]benzamide], for which the pIC50 in test [1] is over 7.00; in test [2], 6.00 to 6.60; in test [3] it was over 7.00; in test [4] it was over 6.60.
`CCN1CCN(C2CCN(c3ccc(Nc4nccc(-c5c(-c6cccc(C(=O)Nc7c(F)cccc7F)c6)nc6ccccn56)n4)c(OC)c3)CC2)CC1` [Example 64, N-(2,6-difluorophenyl)-3-[3-(2-{[4-[4-(4-ethyl-1-piperazinyl)-1-piperidinyl]-2-(methyloxy)phenyl]amino}-4-pyrimidinyl)imidazo[1,2-a]pyridin-2-yl]benzamide]: the pIC50 was over 7.00 in test [1], 6.00 to 6.60 in test [2], 6.30 to 7.00 in test [3] and over 6.60 in test [4].
Regarding `CCOc1cc(N2CCC(N3CCN(CCF)CC3)CC2)ccc1Nc1nccc(-c2c(-c3cccc(C(=O)Nc4c(F)cccc4F)c3)nc3ccccn23)n1` [Example 116, N-(2,6-difluorophenyl)-3-(3-{2-[(2-(ethyloxy)-4-{4-[4-(2-fluoroethyl)-1-piperazinyl]-1-piperidinyl}phenyl)amino]-4-pyrimidinyl}imidazo[1,2-a]pyridin-2-yl)benzamide], the pIC50 in test [1] is over 7.00; in test [2], 6.00 to 6.60; in test [3] it was over 7.00; in test [4], 6.00 to 6.60.
Regarding `CCOc1cc(N2CCC(N3CCN(S(C)(=O)=O)CC3)CC2)ccc1Nc1nccc(-c2c(-c3ccc(OC)c(C(=O)Nc4c(F)cccc4F)c3)nc3ccccn23)n1` [Example 223, N-(2,6-difluorophenyl)-5-(3-{2-[(2-(ethyloxy)-4-{4-[4-(methylsulfonyl)-1-piperazinyl]-1-piperidinyl}phenyl)amino]-4-pyrimidinyl}imidazo[1,2-a]pyridin-2-yl)-2-(methyloxy)benzamide], the pIC50 in test [1] is over 7.00; in test [2], over 6.60; in test [3], over 7.00; in test [4], over 6.60.
For the compound `COc1cc(N2CCC(C3CCN(CCS(C)(=O)=O)CC3)CC2)ccc1Nc1nccc(-c2c(-c3cccc(C(=O)Nc4c(F)cccc4F)c3)nc3ccccn23)n1` [Example 97, N-(2,6-difluorophenyl)-3-(3-{2-[(2-(methyloxy)-4-{1′-[2-(methylsulfonyl)ethyl]-4,4′-bipiperidin-1-yl}phenyl)amino]-4-pyrimidinyl}imidazo[1,2-a]pyridin-2-yl)benzamide], the pIC50 in test [1] is over 7.00; in test [2] it was 6.00 to 6.60; in test [3], over 7.00; in test [4], 6.00 to 6.60.
